Data taken from the supplement of paper PMC10307832.

What was measured:
Experiment in all cases: relative viability (nuclei count vs DMSO), 5 days (fraction); higher = more cells survive
LCLC-103H = test system: LCLC-103H
Outline: (§1)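 Lung cancer cell lines were seeded in 1536-well plates and dosed by pin tool the next day, with either a single drug or a fixed anchor-drug dose combined with five library-drug doses (not always all listed) spaced in √10 steps. Five days later, one step fixed the cells and stained their nuclei (final 0.05% Triton X-100, 1% formaldehyde, 1 ug/ml Hoechst), and nuclei were counted on 4× images. Relative viability is the nuclei count in treated wells divided by the count in vehicle wells, and each value is the median of duplicate plates.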

LXF-289 = test system: LXF-289
Outline: as §1

NCI-H1355 = test system: NCI-H1355
Outline: as §1

NCI-H1563 = test system: NCI-H1563
Outline: as §1

NCI-H1651 = test system: NCI-H1651
Outline: as §1

NCI-H1755 = test system: NCI-H1755
Outline: as §1

NCI-H1792 = test system: NCI-H1792
Outline: as §1

NCI-H1915 = test system: NCI-H1915
Outline: as §1

NCI-H2170 = test system: NCI-H2170
Outline: as §1

NCI-H2347 = test system: NCI-H2347
Outline: as §1

NCI-H3122 = test system: NCI-H3122
Outline: as §1

NCI-H322M = test system: NCI-H322M
Outline: as §1

NCI-H441 = test system: NCI-H441
Outline: as §1

NCI-H460 = test system: NCI-H460
Outline: as §1

NCI-H520 = test system: NCI-H520
Outline: as §1

NCI-H596 = test system: NCI-H596
Outline: as §1

NCI-H650 = test system: NCI-H650
Outline: as §1

NCI-H661 = test system: NCI-H661
Outline: as §1

NCI-H727 = test system: NCI-H727
Outline: as §1

PC-14 = test system: PC-14
Outline: as §1

RERF-LC-KJ = test system: RERF-LC-KJ
Outline: as §1

SK-MES-1 = test system: SK-MES-1
Outline: as §1

Question: Which results are given for Oc1nc(-c2ccc(C(F)(F)F)cc2)nc2c1CSCC2 [XAV939] + Cc1nc(NC(=O)N2CCC[C@H]2C(N)=O)sc1-c1ccnc(C(C)(C)C(F)(F)F)c1 [Alpelisib] (partner 2 µM)?
Answer: relative viability (LCLC-103H; first compound 0.08 µM): 0.941; relative viability (LCLC-103H; first compound 0.253 µM): 0.766; relative viability (LCLC-103H; first compound 0.8 µM): 0.852; relative viability (LCLC-103H; first compound 2.53 µM): 0.873; relative viability (LXF-289; first compound 0.08 µM): 1.04; relative viability (LXF-289; first compound 0.253 µM): 0.996; relative viability (LXF-289; first compound 0.8 µM): 1.01; relative viability (LXF-289; first compound 2.53 µM): 1.01; relative viability (NCI-H1355; first compound 0.08 µM): 0.78; relative viability (NCI-H1355; first compound 0.253 µM): 0.654; relative viability (NCI-H1355; first compound 0.8 µM): 0.75; relative viability (NCI-H1355; first compound 2.53 µM): 0.489; relative viability (NCI-H1563; first compound 0.08 µM): 0.937; relative viability (NCI-H1563; first compound 0.253 µM): 0.864; relative viability (NCI-H1563; first compound 0.8 µM): 0.804; relative viability (NCI-H1563; first compound 2.53 µM): 0.708; relative viability (NCI-H1651; first compound 0.08 µM): 0.979; relative viability (NCI-H1651; first compound 0.253 µM): 0.841; relative viability (NCI-H1651; first compound 0.8 µM): 0.978; relative viability (NCI-H1651; first compound 2.53 µM): 0.891; relative viability (NCI-H1755; first compound 0.08 µM): 0.895; relative viability (NCI-H1755; first compound 0.253 µM): 0.808; relative viability (NCI-H1755; first compound 0.8 µM): 0.888; relative viability (NCI-H1755; first compound 2.53 µM): 0.735; relative viability (NCI-H1792; first compound 0.08 µM): 0.924; relative viability (NCI-H1792; first compound 0.253 µM): 0.667; relative viability (NCI-H1792; first compound 0.8 µM): 0.671; relative viability (NCI-H1792; first compound 2.53 µM): 0.594; relative viability (NCI-H1915; first compound 0.08 µM): 1.08; relative viability (NCI-H1915; first compound 0.253 µM): 1.07; relative viability (NCI-H1915; first compound 0.8 µM): 1.03; relative viability (NCI-H1915; first compound 2.53 µM): 1.08; relative viability (NCI-H2170; first compound 0.08 µM): 0.855; relative viability (NCI-H2170; first compound 0.253 µM): 0.612; relative viability (NCI-H2170; first compound 0.8 µM): 0.654; relative viability (NCI-H2170; first compound 2.53 µM): 0.578; relative viability (NCI-H2347; first compound 0.08 µM): 1.08; relative viability (NCI-H2347; first compound 0.253 µM): 0.97; relative viability (NCI-H2347; first compound 0.8 µM): 1.05; relative viability (NCI-H2347; first compound 2.53 µM): 0.926; relative viability (NCI-H3122; first compound 0.08 µM): 0.812; relative viability (NCI-H3122; first compound 0.253 µM): 0.575; relative viability (NCI-H3122; first compound 0.8 µM): 0.757; relative viability (NCI-H3122; first compound 2.53 µM): 0.358; relative viability (NCI-H322M; first compound 0.08 µM): 0.844; relative viability (NCI-H322M; first compound 0.253 µM): 0.656; relative viability (NCI-H322M; first compound 0.8 µM): 0.741; relative viability (NCI-H322M; first compound 2.53 µM): 0.718; relative viability (NCI-H441; first compound 0.08 µM): 0.687; relative viability (NCI-H441; first compound 0.253 µM): 0.486; relative viability (NCI-H441; first compound 0.8 µM): 0.742; relative viability (NCI-H441; first compound 2.53 µM): 0.657; relative viability (NCI-H460; first compound 0.08 µM): 0.679; relative viability (NCI-H460; first compound 0.253 µM): 0.36; relative viability (NCI-H460; first compound 0.8 µM): 0.53; relative viability (NCI-H460; first compound 2.53 µM): 0.359; relative viability (NCI-H520; first compound 0.08 µM): 0.842; relative viability (NCI-H520; first compound 0.253 µM): 0.755; relative viability (NCI-H520; first compound 0.8 µM): 0.916; relative viability (NCI-H520; first compound 2.53 µM): 0.648; relative viability (NCI-H596; first compound 0.08 µM): 0.456; relative viability (NCI-H596; first compound 0.253 µM): 0.587; relative viability (NCI-H596; first compound 0.8 µM): 0.534; relative viability (NCI-H596; first compound 2.53 µM): 0.493; relative viability (NCI-H650; first compound 0.08 µM): 1.3; relative viability (NCI-H650; first compound 0.253 µM): 0.959; relative viability (NCI-H650; first compound 0.8 µM): 1.15; relative viability (NCI-H650; first compound 2.53 µM): 0.864; relative viability (NCI-H661; first compound 0.08 µM): 0.655; relative viability (NCI-H661; first compound 0.253 µM): 0.621; relative viability (NCI-H661; first compound 0.8 µM): 0.833; relative viability (NCI-H661; first compound 2.53 µM): 0.492; relative viability (NCI-H727; first compound 0.08 µM): 0.656; relative viability (NCI-H727; first compound 0.253 µM): 0.38; relative viability (NCI-H727; first compound 0.8 µM): 0.626; relative viability (NCI-H727; first compound 2.53 µM): 0.65; relative viability (PC-14; first compound 0.08 µM): 1.03; relative viability (PC-14; first compound 0.253 µM): 0.829; relative viability (PC-14; first compound 0.8 µM): 0.906; relative viability (PC-14; first compound 2.53 µM): 0.796; relative viability (RERF-LC-KJ; first compound 0.08 µM): 0.702; relative viability (RERF-LC-KJ; first compound 0.253 µM): 0.708; relative viability (RERF-LC-KJ; first compound 0.8 µM): 0.768; relative viability (RERF-LC-KJ; first compound 2.53 µM): 0.735; relative viability (SK-MES-1; first compound 0.08 µM): 0.994; relative viability (SK-MES-1; first compound 0.253 µM): 0.912; relative viability (SK-MES-1; first compound 0.8 µM): 0.911; relative viability (SK-MES-1; first compound 2.53 µM): 0.757
